Values quoted from earlier work in patent publication US9358298B2, “17-hydroxyprogesterone ester containing oral compositions and related methods” (Lipocine Inc., priority 2011, dated 2016).

Legend:
[1] = given by mouth; Saxton et al. 2004, Greene NEJM

- solubility in water: < 0.02 µg/mL
Compound: CCCCCC(=O)O[C@]1(C(C)=O)CC[C@H]2[C@@H]3CCC4=CC(=O)CC[C@]4(C)[C@H]3CC[C@@]21C [17-hydroxyprogesterone caproate, 17-alpha-hydroxyprogesterone caproate]
- oral activity [1]: no oral activity
